According to PMC3946900 (Pharmaceutical research, 2013):
Read-outs that look alike come from different tables or passages of the source.

What was measured:
[1] = tested on: P-gp; test: Compartmental models of apical efflux fit to permeability data
[2] = tested on: P-gp (mdr1); conditions: cited from earlier work
[3] = molecular target: P-glycoprotein (P-gp, ABCB1; MDR1) (Homo sapiens, UniProt P08183); conditions: MDCK-MDR1 cells with and without CsA
[4] = 5C model, asa = 1, lipid content = 10%

Sequence of P-glycoprotein (P-gp, ABCB1; MDR1) (P08183 whole entry): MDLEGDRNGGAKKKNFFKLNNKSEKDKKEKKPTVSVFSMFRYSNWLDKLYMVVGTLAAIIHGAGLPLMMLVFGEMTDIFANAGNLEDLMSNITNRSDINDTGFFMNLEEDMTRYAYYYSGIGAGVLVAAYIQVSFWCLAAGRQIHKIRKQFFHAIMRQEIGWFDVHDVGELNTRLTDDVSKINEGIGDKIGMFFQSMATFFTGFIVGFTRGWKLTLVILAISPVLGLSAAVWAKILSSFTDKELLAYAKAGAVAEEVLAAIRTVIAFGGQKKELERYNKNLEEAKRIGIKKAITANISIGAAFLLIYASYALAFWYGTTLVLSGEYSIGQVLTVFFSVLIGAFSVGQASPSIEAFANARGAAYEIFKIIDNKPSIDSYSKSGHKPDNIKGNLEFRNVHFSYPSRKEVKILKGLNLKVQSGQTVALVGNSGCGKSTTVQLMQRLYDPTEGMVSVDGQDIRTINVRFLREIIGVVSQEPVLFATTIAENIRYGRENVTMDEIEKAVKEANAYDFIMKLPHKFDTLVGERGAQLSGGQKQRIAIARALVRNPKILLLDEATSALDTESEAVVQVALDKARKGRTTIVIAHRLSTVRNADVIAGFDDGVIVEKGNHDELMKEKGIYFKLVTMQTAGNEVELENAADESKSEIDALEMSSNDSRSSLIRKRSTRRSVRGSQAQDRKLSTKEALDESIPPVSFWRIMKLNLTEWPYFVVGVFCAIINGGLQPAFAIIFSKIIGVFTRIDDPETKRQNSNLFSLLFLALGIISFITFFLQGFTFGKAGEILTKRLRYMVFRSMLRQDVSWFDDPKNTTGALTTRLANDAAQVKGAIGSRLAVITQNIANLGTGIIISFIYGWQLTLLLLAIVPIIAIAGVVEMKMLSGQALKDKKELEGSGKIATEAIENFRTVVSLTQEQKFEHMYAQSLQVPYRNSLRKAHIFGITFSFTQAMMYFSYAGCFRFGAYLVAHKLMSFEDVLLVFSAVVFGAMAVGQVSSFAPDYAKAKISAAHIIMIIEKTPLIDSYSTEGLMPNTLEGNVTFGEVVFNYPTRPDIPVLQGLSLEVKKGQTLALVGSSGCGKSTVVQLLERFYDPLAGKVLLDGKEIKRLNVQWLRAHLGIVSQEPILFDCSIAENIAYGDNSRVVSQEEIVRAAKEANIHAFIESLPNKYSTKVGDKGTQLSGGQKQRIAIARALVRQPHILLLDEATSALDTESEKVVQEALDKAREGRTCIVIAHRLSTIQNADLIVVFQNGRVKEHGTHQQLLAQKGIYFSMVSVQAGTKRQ

Q: Which results are given for `O=C(O)C[C@H](O)C[C@H](O)/C=C/c1c(C2CC2)nc2ccccc2c1-c1ccc(F)cc1` [Pitavastatin]?
A: CLae (active apical efflux clearance) [1, 4]: 0.030 µL/min; CLi (diffusion clearance into an explicit membrane compartment) [1, 4]: 3.5 µL/min; Brain Conc. Ratio mdr1(−/−)/mdr1(+/+) ([2]; mice, brain): 1.3; Liver Conc. Ratio mdr1(−/−)/mdr1(+/+) ([2]; mice, liver): 0.88

Q: For `Cc1nccn1CC1CCc2c(c3ccccc3n2C)C1=O` (stereo not shown) [Ondansetron], which “Brain Conc. Ratio mdr1(−/−)/mdr1(+/+)” value ([2]; mice, brain) is on record?
A: The value was 4.0.

Q: And the “Liver Conc. Ratio mdr1(−/−)/mdr1(+/+)” value ([2]; mice, liver)?
A: Its value is 0.9.

Q: With `C=CC[C@@H]1/C=C(\C)C[C@H](C)C[C@H](OC)[C@H]2O[C@@](O)(C(=O)C(=O)N3CCCC[C@H]3C(=O)O[C@H](/C(C)=C/[C@@H]3CC[C@@H](O)[C@H](OC)C3)[C@H](C)[C@@H](O)CC1=O)[C@H](C)C[C@@H]2OC` [Tacrolimus] as the molecule, how does the “Brain Conc. Ratio mdr1(−/−)/mdr1(+/+)” value ([2]; mouse, in vivo) read?
A: The value was 6.0.

Q: And the “Liver Conc. Ratio mdr1(−/−)/mdr1(+/+)” value ([2]; mouse, in vivo)?
A: Its value is 1.7.

Q: What does the source list for `CN(C(=O)C(c1ccccc1)c1ccccc1)[C@H](CN1CC[C@H](O)C1)c1ccccc1` [Asimadoline]?
A: Brain Conc. Ratio mdr1(−/−)/mdr1(+/+) ([2]; mice, brain): 9.1; Liver Conc. Ratio mdr1(−/−)/mdr1(+/+) ([2]; mice, liver): 1.1

Q: Which results are given for `Cc1nnc2n1-c1sc(CCC(=O)N3CCOCC3)cc1C(c1ccccc1Cl)=NC2` [Apafant]?
A: Brain Conc. Ratio mdr1(−/−)/mdr1(+/+) ([2]; mice, brain): 73.6; Liver Conc. Ratio mdr1(−/−)/mdr1(+/+) ([2]; mice, liver): 4.5

Q: With `Nc1cc(N2CCCCC2)nc(N)[n+]1[O-]` [Minoxidil] as the molecule, how does the “CLae (active apical efflux clearance)” value [1] read?
A: The value was 0.021 µL/min.

Q: Which “Brain Conc. Ratio mdr1(−/−)/mdr1(+/+)” value ([2]; mouse, in vivo) does the source give for `CO[C@H]1C[C@H](O[C@@H]2/C(C)=C/C[C@@H]3C[C@@H](C[C@]4(CC[C@H](C)[C@@H](C5CCCCC5)O4)O3)OC(=O)[C@@H]3C=C(C)/C(=N/O)[C@H]4OC/C(=C\C=C\[C@@H]2C)[C@]43O)O[C@@H](C)[C@@H]1O` [Selamectin] here?
A: The value was 4.9.

Q: What about the “Liver Conc. Ratio mdr1(−/−)/mdr1(+/+)” value ([2]; mouse, in vivo) of the same molecule?
A: The value was 0.5.

Q: For `C/C=C/C[C@@H](C)C(=O)[C@H]1C(=O)N[C@@H](C(C)C)C(=O)N(C)CC(=O)N(C)[C@@H](CC(C)C)C(=O)N[C@@H](C(C)C)C(=O)N(C)[C@@H](CC(C)C)C(=O)N[C@@H](C)C(=O)N[C@H](C)C(=O)N(C)[C@@H](CC(C)C)C(=O)N(C)[C@@H](CC(C)C)C(=O)N(C)[C@@H](C(C)C)C(=O)N1C` [SDZ PSC 833], which “Brain Conc. Ratio mdr1(−/−)/mdr1(+/+)” value ([2]; mice, brain) is on record?
A: The value was 2.1.

Q: What about the “Liver Conc. Ratio mdr1(−/−)/mdr1(+/+)” value ([2]; mice, liver) of the same molecule?
A: The value was 0.9.

Q: For `Cc1c(O)cccc1C(=O)N[C@@H](CSc1ccccc1)[C@H](O)CN1C[C@H]2CCCC[C@H]2C[C@H]1C(=O)NC(C)(C)C` [Nelfinavir], which “Brain Conc. Ratio mdr1(−/−)/mdr1(+/+)” value ([2]; mice, brain) is on record?
A: The value was 16.1.

Q: What about the “Liver Conc. Ratio mdr1(−/−)/mdr1(+/+)” value ([2]; mice, liver) of the same molecule?
A: The value was 3.0.

Q: What does the source list for `CC[C@]1(O)C[C@@H]2CN(CCc3c([nH]c4ccccc34)[C@@](C(=O)OC)(c3cc4c(cc3OC)N(C)[C@H]3[C@@](O)(C(=O)OC)[C@H](OC(C)=O)[C@]5(CC)C=CCN6CC[C@]43[C@@H]65)C2)C1` [Vinblastine]?
A: Brain Conc. Ratio mdr1(−/−)/mdr1(+/+) ([2]; mice, brain): 22.4; Liver Conc. Ratio mdr1(−/−)/mdr1(+/+) ([2]; mice, liver): 1.8

Q: Which “permeability (qualitative)” value [3] does the source give for `CN(C)C(=O)C(CCN1CCC(O)(c2ccc(Cl)cc2)CC1)(c1ccccc1)c1ccccc1` [Loperamide] here?
A: Its value is “high permeability”.
